Data on one compound can be found in patent US6541027B1, “Lactic acid bacteria with anxiolytic properties and uses thereof” (Compagnie Gervais Danone, priority 1999, dated 2003).

Data set [1] deals with SPF Wistar/AF male rats. Nature of the data set: Conditioned Defensive Burying test, overall stress score. It is filed as in vivo, rat. As to conditions: for overall stress score during test 2: test 2 on day 8, 6 hours after administration (diazepam 3 mg/kg p.o. daily, 1 hour before test); for overall stress score: 5 ml/kg p.o. daily for 6 days. The method, then:
The anxiolytic effect is evaluated using the Conditioned Defensive Burying model, which was developed from the procedure by J. P. PINEL and D. TREIT (PINEL and TREIT, J. Comp. & Physiol. Psychol., 92, 708-712, 1978; TREIT et al., Pharmacol. Biochem. Behav., 15, 619-626, 1981). This model uses the natural propensity of most rodents to bury themselves from a stressful source of stimulus (TREIT, Pharmacol. Biochem. Behav., 22, 1, 47-52, 1985; MEERT and COLPAERT, Psychopharmacology, 88, 445-450, 1986; CRAFT et al., Pharmacol. Biochem. Behav., 30, 3, 775-780, 1988; TREIT, Pharmacol. Biochem. Behav., 36, 203-205, 1990).
Seventy two SPF Wistar/AF male rats (IFFA-CREDO breeding center, 69—St-Germain sur l'Arbresle, France) weighing 320 to 340 g were used. On reception, the rats were weighed, marked and divided into groups of 4 in type F polycarbonate cages (48×27×20 cm, U.A.R., 91—Epinay-Sur-Orge, France). The animals were stalled in an air-conditioned animal house, at a temperature of 22-24° C. Food (M25 biscuits, Ets […], 77—Provins, France) and drink were available to the rats ad libitum. They were subjected to a light-darkness cycle of 12 hours (light from 24 h to 12 h).
After a week's familiarization with the laboratory conditions, the 72 rats were randomly divided into 6 groups (n=12). The rats in the different groups were all handled in the same way and under the same conditions.
Habituation and the tests were carried out in a transparent cage having the dimensions 44×28×18 cm, whose base is covered with sawdust over a thickness of 5 cm. In the middle of a lateral face, an orifice allows the attachment of an electric probe, 2 cm above the level of the sawdust.
It is a probe made of plexiglas having the dimensions 7×2×0.5 cm, covered with a copper printed circuit in which the gap between the wires is 1 mm, chosen so that one leg of the rat coming to rest on the probe easily makes contact between them, thus allowing the passage of current.
The probe is connected to a manually triggered generator of electric shocks of 0 to 8 mA (OPEN-SYSTEMS, 54—Maxeville, France).
In the faintly illuminated experimental room, a video camera was placed in front of the cage of the setup, at a distance of one meter. The camera is connected to a video recorder and to a control monitor, which are placed in an adjacent room with the electric shock generator.
The experiment was carried out according to a double blind design.
During the 2 days preceding the first test, the rats were transported from the animal house to the experimental room and introduced into the experimental device in order to habituate them to both the handling and to the cage of the device in the absence of the electrode. Each group of 4 rats was placed in the device for 20 minutes. The sawdust is changed, leveled to a uniform height of 5 cm, before the period of habituation of each of the groups.
The electric probe is inserted into the cage before the beginning of the first test. Each rat is placed in the experimental cage on the side opposite the probe.
During the first test (test 1), a single electric shock, of low intensity (2 mA) is delivered to the animal when it places a hind leg for the first time on the probe.
Following the electric shock, the behavior of each rat is recorded for 5 minutes. […] The probe is cleaned after each rat and the sawdust is changed and leveled to a uniform height of 5 cm before the test session for each cage of rats.
The products L, 3ST, 3S and 3S+P were orally administered daily at the same times, at the doses of 5 ml/kg by means of syringes provided with intragastric forced-feeding probes (HARVARD APPARATUS, 91—Les Ulis, France). The burying tests (test 1 on day 6 and test 2 on day 8) were carried out 6 hours after the administration of the products.
The positive control is diazepam (3 mg/kg), which was suspended in an aqueous solution of methyl cellulose at 1% and was orally administered daily, for the same period. […]

Data set [2] concerns SPF Wistar/AF male rats. Briefly: Sedative effect (locomotive and exploratory activity) during the Conditioned Defensive Burying test. Type of data set: in vivo, rat. Particulars: Example 2; test 1 on day 6; 5 ml/kg p.o. daily (diazepam 3 mg/kg p.o.). The method, then:
The tests were carried out according to the protocol described in example 2 above, on one hundred and fifty eight SPF Wistar/AF males (IFFA-CREDO breeding center, 69—St Germain sur Arbresles, France) weighing 260 to 280 g. After a week's familiarization with the laboratory conditions, the rats were randomly divided into 13 treatment groups. The rats of the various groups were handled in the same manner and under the same conditions.
All the products were orally administered daily for 6 days at the same times at the doses of 5 ml/kg using syringes equipped with intragastric forced-feeding probes (HARVARD APPARATUS, 91—Les Ulis, France). On the day for the test, they were administered 6 hours before the burying test.
number of […]: the rat adopts the vertical position while resting on its hind legs;
number of passes from one side of the cage to another.

“Also recorded” adds a separate entry of the source.

`CN1C(=O)CN=C(c2ccccc2)c2cc(Cl)ccc21` [diazepam]: the “overall stress score during test 1” value in the data set with SPF Wistar/AF male rats [1] (Example 2, 5 ml/kg p.o. daily, test 1 on day 6, 6 hours after administration (diazepam 3 mg/kg p.o. daily, 1 hour before test), vs. control product L) was “tends to reduce the overall stress score; also recorded: showed only a trend to reduce the overall stress score”. The “overall stress score during test 2” value with SPF Wistar/AF male rats [1] (Example 2, 5 ml/kg p.o. daily, vs. control product L) is given as “not significantly different from the product L”; with SPF Wistar/AF male rats [1] (Example 2, 5 ml/kg p.o. daily, vs. control product L, listed as Diazepam) it was “no effect which is statistically different from that of the control”. For the same compound, in the data set with SPF Wistar/AF male rats [1] (Example 2, daily oral administration, day 6 vs. day 8), the “phenomenon of tolerance (habituation) between test 1 and test 2” value is listed as “phenomenon of tolerance observed”. Besides, the overall stress score result was “significantly lower overall stress scores; also recorded: significant antistress activity” with SPF Wistar/AF male rats [1] (Example 3, last dose 6 hours before test (diazepam 1-3 mg/kg p.o. over 6 days, 1 hour before test), vs. control product L) and “significantly lower than that of the control product L” with SPF Wistar/AF male rats [1] (Example 5, test 1 hour after last dose (diazepam 1-3 mg/kg p.o., 1 hour before test), vs. control product L). For the same compound, the “sedative effect during test 1” value in the data set with SPF Wistar/AF male rats [2] is recorded as “sedative effect”.
